Measurements reported in patent US11672786B2, “Methods of treating diseases associated with repeat instability” (The Hospital for Sick Children, priority 2016, dated 2023).
Values joined by “and” are separate entries in the source; they are usually repeats but may differ in a detail not shown here. Identical values can stand only once.

Key:
[1] = test system: HT1080-non transcribing (CAG)850 cells; assay: small-pool PCR repeat instability, HT1080-non transcribing (CAG)850 cells; format: cell-based, human; conditions: 50 uM NA, 30 days, repeat not transcribed
Protocol: The construction of the HT1080-(CAG)850 cell model was described previously (Sathasivam et al., 1997, Hum. Genet., 99:692-5). Briefly, HT1080 (ATCC) human fibrosarcoma cells were co-transfected with a plasmid (LC15-R) containing 800-850 (CTG)●(CAG) repeats (Nakatani et al., 2005, Nat. Chem. Biol., 1:39-43) and a plasmid encoding PhiC31 integrase. Transfection was performed with a Nucleofector (Lonza, Basel, Switzerland), and stably transfected clones were selected with puromycin. […] The HT1080-non-transcribing (CAG)850 cell model was established by transfecting a plasmid modified from pLC16 by inserting an additional SV40 polyadenylation signal downstream of the repeats (in addition to the original polyadenylation signals located upstream of the repeats), so that CAG/CTG repeats are floxed by transcription-terminator elements. The AttB-PhiC31 system has been widely used for single copy integration. […] The HT1080 model cells and an HD primary fibroblast cell line, GM09197 (Coriell Biorepository) with a large expanded allele of 180 CAG repeats and a non-expanded allele of 23 repeats (Sathasivam et al., 1997, Hum. Genet., 99:[…]), the HD primary fibroblast cell line, GM02191 (Coreill Biorepository) with an expanded allele of 43 CAG repeats and a non-expanded allele of 19 repeats, were cultured at 37° C. with 5% CO2 in Dulbecco's modified Eagle's medium supplemented with 10% fetal bovine serum and 1% penicillin/streptomycin. Cells were treated with or without continuous exposure to 50-μM NA for 30 days (HT1080 cells) or for 40 days (fibroblast cells). For experiments on non-proliferating cells, HT1080 cells were grown to confluence and then treated for the same period. WST-1 assay was performed according to the manufacturer's instructions (Roche, Basel, Switzerland). All cell lines were tested to be free of Mycoplasma. Three biological replicates were performed for each experiment.
Genomic DNA was extracted from HT1080-(CAG)850 clones and HD primary fibroblasts using the Gentra Puregene Cell Kit (Qiagen, Valencia, Calif.). The expanded (CTG)●(CAG) repeats were sized by small-pool PCR (sp-PCR) followed by Southern blot as described previously (Sathasivam et al., 1997, Hum. Genet., 99:692-5). For HT1080 models, small-pool PCR (spPCR) was performed with the input of 1.4-1.7 genome equivalents. The repeat size difference in the models is, at most, 3000 base-pairs, therefore, being strictly conservative, a bias toward amplifying the shorter allele can be possible, even under optimized PCR conditions described herein. For HD primary fibroblasts, sp-PCR & Southern blots were performed as described previously with slight modifications (Tome et al., 2013, PLoS Genet., 9:e1003280). Briefly, the PCR primers listed in Table 1 were used, and blots were hybridized with a DIG-labeled (CAG)7 locked nucleic acid probe (Nakamori et al. 2009, Neuromuscul. Disord., 19:759-62). At least 50 alleles were analyzed for each of the three experiments (more than 150 alleles for a total study). Repeat analyses are summarized in Table 2, compiled from complete small-pool-PCR datasets for each repetition of each experiment. For the histograms in FIGS. 4D, 4E, 10, 11, 5B, 5D, 5E, 14 and 15B, the Y-axis, “% of repeat population” was calculated by determining the proportion of >50 individual small-pool PCR reactions across the CAG repeat tract, that harbored a certain size of repeat product with a certain length. Cell clones were grown 30 or 40 days with or without NA (see, for example, Sathasivam et al., 1997, Hum. Genet., 99:692-5). Specifically, the histograms of repeat length distributions were from at least two different cell clones. Length distributions were determined as follows: Small-pool PCR followed by Southern blot for analysis of CAG/CTG repeat length.

single G-T mismatch = assay: in vitro repair assay by HeLa cell extracts, G-T mismatch; format: biochemical, human
Excerpt: Panel A of […] is a schematic of the in vitro repair assay. Starting DNAs and repair products released the repeat-containing fragment, which is resolved on PAGE and assessed on a molar level by Southern blotting and densitometry. Repair of different DNA substrates containing a long (CAG)20 slip-out (Panel B of FIG. 3) long (CTG)20 slip-out (Panel C of FIG. 3), a single CAG slip-out (Panel D of FIG. 3) or a single G-T mismatch (Panel E of FIG. 3), in the absence or in the presence of NA. Slipped-DNA substrates were prepared from hybrids of (CAG)50●(CTG)30, (CAG)30●(CTG)50 or of (CAG)50●(CTG)49. Repair of the G-T mismatch reconstitutes a HindIII restriction site, as shown schematically. Graphs show percentage repair efficiencies to repaired product relative to all repeat-containing fragments in the lane, values are normalized to the NA-free efficiency. […]
To determine how the binding of NA to slipped DNA structures affects repair, a series of circular slipped heteroduplex substrates was made with an excess of repeats with a nick located either 5′ or 3′ of the slip-out (FIG. 3). […] All these substrates were processed in […] by HeLa extracts and then were assessed for repair. Repair products were analyzed by Southern blotting, probed for the repeat-containing fragment, and compared with starting material, which permitted quantitative assessment of repair efficiency at a molar level. […]

[2] = single experiments Ex 1-3, cut-off ±25 repeats

naphthyridine-azaquinolone
% Contraction ([1]; Total): 21.8% | % Expansion ([1]; Total): 12.1% | % Unchanged ([1]; Total): 66.1% | Average Change of Repeat Size ([1]; Total): −55.9 number of repeats | % Unchanged ([1]; single experiments Ex 1-3): 66.7% and 62.5% and 69.1% | % Contraction [1, 2]: 22.2% and 21.4% and 21.8% | % Expansion [1, 2]: 11.1% and 16.1% and 9.1% | effect on G-T mismatch repair (single G-T mismatch): no effect
